Tests used:
soybean plants [1] = assay: Fe furrow application trial, SPAD measurements; type: in vivo; settings: in furrow at transplanting, Fe rate 0.616 mg/pot, harvested at V3-stage
Procedure: (§1) The plants were analyzed for leaf chlorophyll concentrations using a Soil Plant Analysis Development (“SPAD”) chlorophyll meter (SPAD 502 Plus Chlorophyll Meter, from Spectrum Technologies, Inc.), which enables an in situ, nondestructive technique. That is, not sample processing was required, and the tests were carried out on live plants. Readings were taken immediately before the first foliar treatment and again at 72 hours after the second foliar treatment, and the % SPAD increase of each sample was determined.
(§2) Alkaline soil having a pH of 7.9 was made by mixing air-dried Michigan topsoil (sieved) and fine sand (50:50, v/v). Next, 0.5% w/w calcium hydroxide was added to the soil-sand mixture and mixed well. Water was then added (15% v/v), and the pots were kept in that condition for a week to allow time for alkalinity fully develop. The pH was checked, and the soil was then added to 1-liter pots. There were thirty pots total, providing five replicates for each of the six treatments described below.
(§3) Soybean seeds (FS HISOY® Soybeans) were planted in trays filled with sieved topsoil. A base fertilizer comprising water solution made with urea (N), and monoammonium phosphate (P), and potassium sulfate (K) was applied to each tray before planting. The application rate was of 50-50-50 ppm NPK. Seedlings were irrigated with DI water. The trays were kept in a plant growth chamber so that each seedling received the same environmental exposure during growth.
(§4) Sixteen days after the seeds were planted as described in Part 2 of this Example, the seedlings were transplanted to the pots prepared in Part 1 of this Example. A fertilizer solution was prepared by mixing 16.67 g of Nova PeKacid® 0-60-20 (a phosphorus and potassium fertilizer, available from ICL Specialty Fertilizers), 13.33 g of SOP fertilizer, and 11.2 L of DI water. At the time of transplant, 56.5 mL of this fertilizer solution were added to each pot, and this same fertilizer solution application was repeated weekly until harvest.
(§5) A micronutrient fertilizer solution was prepared by mixing the compounds of Table 19 in 1 L of DI water. At the time of transplanting, 10 mL of this micronutrient fertilizer solution was added to each pot. This application was not repeated during the growth cycle.
(§6) Using a pipette, an iron test solution (comparative or Option 11 solution from Example 9—see Table 20) was applied about 1 cm below the soil surface, near each plant except for the negative control. This was the only iron test solution application.
(§7) All plants received about 100 mL of DI water every other day.
Thirty-six days after transplantation, the plants were harvested. SPAD measurements were taken as described Example 9. […] A total of nine readings were taken per trifoliate (3 per leaf).

soybean plants [2] = assay: Fe furrow application trial, biomass measurements; type: in vivo; settings: in furrow at transplanting, Fe rate 0.616 mg/pot, harvested at V3-stage
Procedure: (§8) One week after application, root and shoot masses were determined by drying the above- and below-ground biomass for 12 hours at […], then weighing each plant to the third decimal in grams.
as §2, §3, §4, §5, §6, §7
(§9) Shoot and root biomasses were also determined, following the procedure described in Example 7.

soybean plants [3] = assay: Fe furrow application trial, iron uptake by ICP; type: in vivo; settings: in furrow at transplanting, Fe rate 0.616 mg/pot, harvested at V3-stage
Procedure: (§10) Iron concentrations for the various plants were also determined and compared at the time of harvest, which was at least 3 days after the last treatment application. Again, each treatment had five replicates. All samples were washed in acetic acid and rinsed before being prepared for analysis by Inductively Coupled Plasma (“ICP”) Spectroscopy. Dried samples were combusted at 450° C. and extracted with concentrated hydrochloric acid, followed by analysis using ICP.
as §2, §3, §4, §5, §6, §7
(§11) Iron uptake was determined using ICP as described in Example 9.

soybean plants [4] = assay: Fe foliar application trial, SPAD measurements; type: in vivo; settings: foliar at V3 stage, Fe rate 0.616 mg/pot (Table 20), harvested after 1 week
Procedure: as §1
Thirty-six days after transplantation, the plants were harvested. SPAD measurements were taken as described Example 9. Fully grown youngest trifoliate and second youngest trifoliate were selected for these SPAD measurements. A total of nine readings were taken per trifoliate (3 per leaf).
(§12) Example 11 was exactly repeated except that instead of treating the soil with an iron solution by pipetting the solution at the time of transplantation, the plants were treated foliarly at V3 stage of growth and harvested 1 week after treatment. The SPAD, biomass, and iron uptake results can be found in Tables 24-26, respectively, while the Fe(III) reductase gene expression results can be found in FIG. 14.

soybean plants [5] = assay: Fe foliar application trial, biomass measurements; type: in vivo; settings: foliar at V3 stage, Fe rate 0.616 mg/pot (Table 20), harvested after 1 week
Procedure: as §8, §9, §12

soybean plants [6] = assay: Fe foliar application trial, iron uptake by ICP; type: in vivo; settings: foliar at V3 stage, Fe rate 0.616 mg/pot (Table 20), harvested after 1 week
Procedure: as §10, §11, §12

[7] = 75% by weight solution mixed with 25% by weight of a 50% phosphonate solution, room temperature, one week; FIG. 3
Procedure: The source of iron was iron(II) sulfate heptahydrate, the base utilized was Mg(OH)2, and the citric acid:malic acid ratio was 50:50. The ratio of metal:base:total acid was 4:4:3.
A comparative solution was prepared by mixing 75% of an iron sulfate solution with 25% of the same phosphonate, also under ambient conditions. The solutions were permitted to sit for one week to look for any unwanted precipitation (i.e., iron complexed with the phosphonate).

SMILES	Average SPAD value, second youngest trifoliate (old) (soybean plants [1])	Average SPAD value, youngest trifoliate (young) (soybean plants [1])	Root average dry biomass (soybean plants [2]) [g]	Shoot average dry biomass (soybean plants [2]) [g]	Average Fe uptake, root (soybean plants [3]) [μg/plant]	Average Fe uptake, shoot (soybean plants [3]) [μg/plant]	Average SPAD value, second youngest trifoliate (old) (soybean plants [4])	Average SPAD value, youngest trifoliate (young) (soybean plants [4])	Root average weight/plant (dry biomass) (soybean plants [5]) [g]	Shoot average weight/plant (dry biomass) (soybean plants [5]) [g]	Average Fe uptake, root (soybean plants [6]) [μg/plant]	Average Fe uptake, shoot (soybean plants [6]) [μg/plant]	extent of coordination complexing of iron (unwanted precipitation with phosphonate) [7]
O=C([O-])CN(CCN(CC(=O)[O-])CC(=O)[O-])CC(=O)[O-].[Fe+3] [FeEDTA, iron chelated with EDTA]	37.94	39.12	0.650	2.276	183.64	188.92	32.74	32.06	0.661	2.514	246.69	348.28	–
O=S(=O)([O-])[O-].[Fe+2] [FeSO4, iron sulfate]	30.74	32.98	0.540	1.992	172.17	116.20	29.84	33.64	0.601	2.199	273.02	217.88	which was not the case

— patent publication US11560339B2, “Micronutrient foliar solutions” (KOCH AGRONOMIC SERVICES, LLC, priority 2019, dated 2023)
